Data on five compounds can be found in US12391658B2, “Sulfoxide and sulfone glucokinase activators and methods of use thereof” (vTv Therapeutics LLC, priority 2020, dated 2025).

For orientation: IC50 means the concentration needed to halve the response being measured. One may read the solubility as the concentration that dissolves in the medium under given conditions.

Converted amounts (≈) assume the structure as drawn. Read-outs that look alike come from different tables or passages of the source. Marks after values point to notes of the source that are not given here.

One data set has as its target T1, P-glycoprotein (P-gp) (Homo sapiens, UniProt P08183).
T1 construct: the P-gp transporter expressed on Caco-2 cell monolayers; endogenous in cells; host or cells: Caco-2
In words: P-gp transporter inhibition. Format: in vitro ADME. The method, then: (§1) The cell-based bidirectional permeability assay (or monolayer efflux assay) is a method for determining transporter inhibition (such as P-glycoprotein (P-gp) or Breast Cancer Resistance Protein (BCRP)) potential of test compounds in drug discovery. The experimental protocol for this assay is well established and typically, bidirectional permeability of a known substrate is assessed alone and in the presence of a single concentration of test compound to estimate the inhibition potential.
(§2) The monolayer efflux assay, where the ratio of basolateral-to-apical (B→A) permeability versus apical-to-basolateral (A→B) permeability is compared with a value of 1, is regarded as the standard for identifying substrates. Due to concentration-dependent inhibition of active efflux on the apical side by inhibitors, the B→A permeability decreases whilst A→B permeability increases with ratio approaching unity as the dose of inhibitor increases. The affinity of inhibitor to efflux protein(s) may be studied by calculating the active flux that can be obtained from the B→A fluxes in the absence and presence of efflux inhibitors. Inhibition potency, determined by inhibitor concentration-dependent transport assay, is usually represented as an IC50 value, the concentration that gives 50% of maximum inhibition of a known P-gp or BCRP substrate. Specificity of the inhibitor to P-gp or BCRP may be determined by competitive assays, which involve a transport assay of a known substrate in the presence of known inhibitors (specific to various transporters) with and without test compounds. Thus, appropriate design of competitive inhibition assays using known selected substrates and modulators will show the specificity of an inhibitor towards an efflux pump.
The potential inhibitory activity of a compound on the P-gp transporter expressed on Caco-2 cell monolayers may be investigated in experiments monitoring the bi-directional transport of a test compound in the presence or absence of a P-gp inhibitor such as Cyclosporin A (CsA) or verapamil.
The potential inhibitory activity of a compound on the P-gp transporter expressed on Caco-2 cell monolayers may also be investigated in experiments monitoring the bi-directional transport of [^3H]-digoxin in the presence of increasing concentrations of a test compound (such as 1, 5, 20, 100, and 200 μg/mL or 1.6, 3.2, 16, 32, 160 and 320 μg/mL). If the efflux of [^3H]-digoxin is not inhibited by a test compound, the test compound is likely a poor inhibitor of P-gp. If the efflux of [^3H]-digoxin is inhibited by a test compound, the IC50 value may be calculated using a non-linear regression of permeability data collected at various concentrations.
(§3) The Caco-2 permeability, P-gp substrate and inhibitory activity, and BCRP substrate and inhibitory activity of Sulfoxide-1, Sufloxide-1A, Sulfoxide-1B, Sulfone-1, and SM-1 was investigated using procedures similar to those described above.

The next data set can be described thus: Aqueous solubility. The conditions noted are these: for aqueous solubility compared with SM-1: across a range of pH's. Format: physicochemical. From the text:
The aqueous solubility of Sulfoxide-1, Sufloxide-1A, Sulfoxide-1B, Sulfone-1, and SM-1 was investigated.

For another data set, the system named is Caco-2 monolayers. Briefly: Caco-2 permeability. It is filed as in vitro ADME, human. The conditions noted are these: tested concentrations of 12.5 μg/mL and 50 μg/mL.
Excerpt: Differentiated Caco-2 cells form a polarized epithelial cell monolayer that provides a physical and biochemical barrier to the passage of ions and small molecules. Using commercially available kits, the Caco-2 monolayer may be used as an in vitro model of the human small intestinal mucosa to predict the intestinal permeability or absorption of orally administered drugs. Researchers have shown a correlation for some molecules between the in vitro apparent permeability (Papp) across Caco-2 monolayers and the in vivo fraction absorbed.
The permeability of a compound may be evaluated in a bi-directional transport experiments at multiple concentrations (such as 1, 2, 5, 20, 100 and 200 μg/mL) using Caco-2 monolayers. The apparent permeability coefficients (Papp) for a compound may be calculated and compared with the permeability of a high permeability marker (such as labetalol) and a low permeability marker (such as mannitol).
as §3
(§4) As summarized in Table 2 below, except for Sulfoxide-1B, all of the tested compounds had low Caco-2 cell permeability and were weak efflux transporter substrates at the tested concentrations of 12.5 μg/mL and 50 μg/mL.
A general note: Passage across Caco-2 layers is used to estimate intestinal permeability.

Another data set has as its system efflux transporter. In words: Efflux substrate activity (monolayer efflux assay). The conditions noted are these: tested concentrations of 12.5 μg/mL and 50 μg/mL. It is filed as in vitro ADME. The method, then: as §1, §2
The potential for P-glycoprotein (P-gp) substrate inhibitory activity of a test compound may be evaluated by determining a test compound's Caco-2 permeability in the presence or absence of a P-gp inhibitor such as Cyclosporin A (CsA) or verapamil.
(§5) The substrate and inhibitor potential of a test compound for the apical efflux transported breast cancer resistance protein (BCRP) may also be evaluated using a bidirectional permeability assessment where the controls are Ko143 (a potent inhibitor of BCRP) and E3S (estrone-3-sulphate, a substrate for BCRP) and across a range of test compound concentrations such as 1, 5, 20, 100, and 200 μg/mL or 1.6, 3.2, 16, 32, 160 and 320 μg/mL).
as §3, §4

Data set [1] addresses T2, breast cancer resistance protein (BCRP) (Homo sapiens, UniProt Q9UNQ0).
T2 construct: endogenous in cells
T2 sequence (Q9UNQ0 1-655): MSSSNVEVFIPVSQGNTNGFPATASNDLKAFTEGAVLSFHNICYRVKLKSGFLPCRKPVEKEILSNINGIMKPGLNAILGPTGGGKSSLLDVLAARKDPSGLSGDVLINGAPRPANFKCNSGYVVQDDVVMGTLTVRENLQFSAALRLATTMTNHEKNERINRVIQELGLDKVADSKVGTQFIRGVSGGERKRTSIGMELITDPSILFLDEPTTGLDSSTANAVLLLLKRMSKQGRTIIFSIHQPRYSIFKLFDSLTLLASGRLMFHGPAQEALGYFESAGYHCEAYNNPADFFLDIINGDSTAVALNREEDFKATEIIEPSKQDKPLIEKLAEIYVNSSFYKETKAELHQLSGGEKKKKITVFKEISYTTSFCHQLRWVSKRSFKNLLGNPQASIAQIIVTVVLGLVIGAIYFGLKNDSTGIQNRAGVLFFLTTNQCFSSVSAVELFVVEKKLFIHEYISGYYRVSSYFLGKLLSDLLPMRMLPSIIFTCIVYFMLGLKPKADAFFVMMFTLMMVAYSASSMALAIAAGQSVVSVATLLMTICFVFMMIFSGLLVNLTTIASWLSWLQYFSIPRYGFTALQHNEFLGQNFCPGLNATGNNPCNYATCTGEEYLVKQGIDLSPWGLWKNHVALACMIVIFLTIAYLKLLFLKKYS
In words: BCRP transporter inhibition. It is filed as in vitro ADME. The procedure: as §1, §2, §5, §3

Where [2] appears, read: 0.1N HCl, simulated gastric fluid, 0.1N HCl, read-out: Solubility.
Where [3] appears, read: acetate buffer, pH 4.5, aqueous buffer, Acetate Buffer pH 4.5, read-out: Solubility.
[4] abbreviates: phosphate buffer, pH 6.5, aqueous buffer, Phosphate Buffer pH 6.5, read-out: Solubility.

T1 sequence (P08183 whole entry): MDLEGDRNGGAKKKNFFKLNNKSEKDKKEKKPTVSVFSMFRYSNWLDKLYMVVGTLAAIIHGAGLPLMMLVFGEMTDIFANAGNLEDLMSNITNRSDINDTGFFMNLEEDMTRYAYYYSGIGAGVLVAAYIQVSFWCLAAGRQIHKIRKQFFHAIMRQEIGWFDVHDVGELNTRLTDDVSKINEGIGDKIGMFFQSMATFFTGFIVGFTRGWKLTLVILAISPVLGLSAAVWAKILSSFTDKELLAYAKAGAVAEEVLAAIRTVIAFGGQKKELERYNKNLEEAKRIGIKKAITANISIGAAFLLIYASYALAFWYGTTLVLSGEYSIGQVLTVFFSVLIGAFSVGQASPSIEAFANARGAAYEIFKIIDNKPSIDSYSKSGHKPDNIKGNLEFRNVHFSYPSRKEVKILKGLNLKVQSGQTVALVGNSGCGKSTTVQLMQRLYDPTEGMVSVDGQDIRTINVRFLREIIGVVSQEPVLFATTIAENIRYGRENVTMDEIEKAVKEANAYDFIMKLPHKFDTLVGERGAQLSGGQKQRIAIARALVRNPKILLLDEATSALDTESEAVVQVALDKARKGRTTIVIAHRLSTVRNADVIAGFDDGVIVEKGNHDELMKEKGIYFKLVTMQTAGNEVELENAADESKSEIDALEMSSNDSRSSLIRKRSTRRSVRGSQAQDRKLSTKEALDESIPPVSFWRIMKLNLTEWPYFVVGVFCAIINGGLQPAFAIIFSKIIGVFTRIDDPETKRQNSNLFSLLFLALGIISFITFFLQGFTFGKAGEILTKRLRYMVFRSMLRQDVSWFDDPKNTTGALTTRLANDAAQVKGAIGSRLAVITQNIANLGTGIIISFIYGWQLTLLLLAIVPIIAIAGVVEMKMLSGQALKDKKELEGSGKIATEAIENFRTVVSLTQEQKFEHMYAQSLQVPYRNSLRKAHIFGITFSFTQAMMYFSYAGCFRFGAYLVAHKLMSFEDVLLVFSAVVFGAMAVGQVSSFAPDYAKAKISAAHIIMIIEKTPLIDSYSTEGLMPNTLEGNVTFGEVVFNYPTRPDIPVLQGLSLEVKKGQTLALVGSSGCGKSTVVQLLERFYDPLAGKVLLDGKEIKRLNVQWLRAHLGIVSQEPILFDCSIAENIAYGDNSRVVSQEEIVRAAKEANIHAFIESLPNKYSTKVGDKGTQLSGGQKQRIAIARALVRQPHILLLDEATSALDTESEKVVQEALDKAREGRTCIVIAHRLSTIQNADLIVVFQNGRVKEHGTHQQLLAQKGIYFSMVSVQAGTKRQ

As for `CCCO[C@H]1CC[C@H](N(C(=O)Nc2ncc([S+]([O-])CC(=O)O)s2)C2CCCCC2)CC1` (relative stereo) [Sulfoxide-1, {2-[3-Cyclohexyl-3-(trans-4-propoxy-cyclohexyl)-ureido]-thiazol-5-ylsulfinyl}-acetic acid], the concentration for half-maximal inhibition (IC50) at P-glycoprotein (P-gp) is around 212 µM; in data set [1], above 212 µM. Besides, the solubility was 0.03 mg/mL (≈ 0.0636 mM) in “Aqueous solubility” (setting [2]), 2.57 mg/mL (≈ 5.45 mM) in “Aqueous solubility” (setting [3]) and 2.93 mg/mL (≈ 6.21 mM) in “Aqueous solubility” (setting [4]). For the same compound, the “aqueous solubility compared with SM-1” value in the data set “Aqueous solubility” is listed as “much greater aqueous solubility than SM-1”. Besides, in the data set on Caco-2 monolayers, the “Caco-2 Permeability” value is “Low”. Moreover, the “Efflux Transporter Substrate” value with efflux transporter is “Yes”. Besides, in data set [1], the “BCRP inhibitory activity, rank among the tested compounds” value (“BCRP inhibitory activity” below) is reported as “weakest BCRP inhibitors”.

For the compound `CCCO[C@H]1CC[C@H](N(C(=O)Nc2ncc([S+]([O-])CC(=O)O)s2)C2CCCCC2)CC1` (single isomer, unassigned) [Sulfoxide-1A, {2-[3-Cyclohexyl-3-(trans-4-propoxy-cyclohexyl)-ureido]-thiazol-5-ylsulfinyl}-acetic acid], the concentration for half-maximal inhibition (IC50) at P-glycoprotein (P-gp) was around 138 µM; in data set [1], around 170 µM. Also, the solubility in “Aqueous solubility” (setting [2]) is 0.12 mg/mL (≈ 0.254 mM); in “Aqueous solubility” (setting [3]) it was 1.63 mg/mL (≈ 3.46 mM); in “Aqueous solubility” (setting [4]), 1.94 mg/mL (≈ 4.11 mM). Moreover, in “Aqueous solubility”, the “aqueous solubility compared with SM-1” value was “much greater aqueous solubility than SM-1”. Further, the “Caco-2 Permeability” value in the data set on Caco-2 monolayers was “Low”. Also, the “Efflux Transporter Substrate” value with efflux transporter is “Yes”.

Regarding `CCCO[C@H]1CC[C@H](N(C(=O)Nc2ncc([S+]([O-])CC(=O)O)s2)C2CCCCC2)CC1` (single isomer, unassigned) [Sulfoxide-1B, {2-[3-Cyclohexyl-3-(trans-4-propoxy-cyclohexyl)-ureido]-thiazol-5-ylsulfinyl}-acetic acid], the IC50 (against P-glycoprotein (P-gp); in data set [1]) was above 212 µM each time. At P-glycoprotein (P-gp), the “P-gp inhibitory activity, rank among the tested compounds” value is “weakest P-gp inhibitor”. Moreover, the values for the solubility in “Aqueous solubility” (0.1N HCl), in the data set “Aqueous solubility” (Acetate Buffer pH 4.5) and in the data set “Aqueous solubility” (Phosphate Buffer pH 6.5) were 0.12 mg/mL (≈ 0.254 mM), 1.85 mg/mL (≈ 3.92 mM) and 1990* μg/mL, respectively. Also, the “aqueous solubility compared with SM-1” value in the data set “Aqueous solubility” is “much greater aqueous solubility than SM-1”. Further, in the data set on Caco-2 monolayers, the “Caco-2 Permeability” value is on record as “Moderate”. For the same compound, the “Efflux Transporter Substrate” value in the data set on efflux transporter is “not an efflux transporter substrate and No”. Besides, the “BCRP inhibitory activity” value in data set [1] was “weakest BCRP inhibitors”.

For the compound `CCCO[C@H]1CC[C@H](N(C(=O)Nc2ncc(SCC(=O)O)s2)C2CCCCC2)CC1` [SM-1, {2-[3-cyclohexyl-3-(trans-4-propoxy-cyclohexyl)-ureido]-thiazol-5-ylsulfanyl}-acetic acid, reference compound], the half-maximal inhibitory concentration (IC50) against P-glycoprotein (P-gp) was 115 µM; in data set [1], 19.5 µM. Besides, the solubility turned out to be 0.00044 mg/mL (≈ 0.000966 mM) in the data set “Aqueous solubility” (setting [3]) and 0.021 mg/mL (≈ 0.0461 mM) in “Aqueous solubility” (setting [4]). Further, the “Caco-2 Permeability” value in the data set on Caco-2 monolayers is given as “Low”. Further, in the data set with efflux transporter, the “Efflux Transporter Substrate” value is “Yes”. For the same compound, the “BCRP inhibitory activity” value in data set [1] is given as “strongest BCRP inhibitor”.

As for `CCCO[C@H]1CC[C@H](N(C(=O)Nc2ncc(S(=O)(=O)CC(=O)O)s2)C2CCCCC2)CC1` [Sulfone-1, {2-[3-Cyclohexyl-3-(trans-4-propoxy-cyclohexyl)-ureido]-thiazol-5-ylsulfonyl}-acetic acid], the IC50 against P-glycoprotein (P-gp) is around 205 µM; in data set [1], above 205 µM. The values for the solubility in “Aqueous solubility” (setting [2]), in “Aqueous solubility” (setting [3]) and in the data set “Aqueous solubility” (setting [4]) were 0.01 mg/mL (≈ 0.0205 mM), 2.07 mg/mL (≈ 4.24 mM) and 2.1 mg/mL (≈ 4.31 mM), respectively. Further, the “aqueous solubility compared with SM-1” value in the data set “Aqueous solubility” is reported as “much greater aqueous solubility than SM-1”. In the data set with Caco-2 monolayers, the “Caco-2 Permeability” value was “Low”. The “Efflux Transporter Substrate” value with efflux transporter is “Yes”. In addition, in data set [1], the “BCRP inhibitory activity” value is “weakest BCRP inhibitors”.
